{"source": "PubChem BioAssay AID2060613", "about": "(Molecular Pharmacology Branch, DTP, NCI, 2025)", "test_system": "233499-124-R-J3-PDC complex spheroid viability", "assay": "Anticancer human tumor 233499-124-R-J3-PDC patient-derived colon adenocarcinoma cell line growth inhibition [CLK]", "details": "for IC50: curve of first compound; for viability, T/C: stronger effect = lower value", "excerpt": "A high-throughput screen of multi-cell type tumor spheroids was designed to identify active combinations of […] and targeted small molecules. Complex spheroids include a stromal component modeled by human endothelial cells (HUVEC) and fibroblasts modeled by human mesenchymal stem cells (MSCs). The concentration ranges selected for each drug and investigational agent were based upon clinically achievable concentrations if the clinical Cmax of the agent was known.\nCompounds. The drugs and investigational agents: cirtuvivint (SM08502; NSC835563), CC-671 (NSC850746), vemurafenib (NSC761431), tapotoclax (NSC804041), sotorasib (NSC818433), adagrasib (NSC831453), MRTX-1133 (NSC836407), BAY2416964 (NSC825713), copanlisib (NSC816437), inavolisib (NSC800729), abemaciclib (NSC768073), osimertinib (NSC779217), entinostat (NSC756642), eltanexor (KPT-8602, NSC794443), venetoclax (NSC766270), ceralasertib (NSC777638), bortezomib (NSC756655), olaparib (NSC753686), talazoparib (NSC767125), alisertib (NSC759677), peposertib (NSC802822), gemcitabine (NSC613327), 5-fluorouracil (NSC19893), SN-38 (NSC673596), oxaliplatin (NSC266046), paclitaxel (NSC125973), and doxorubicin (NSC123127), were obtained from the National Cancer Institute (NCI) Developmental Therapeutics Program Chemical Repository. The FDA-approved anticancer drug set is available from the Developmental Therapeutics Program at https://dtp.cancer.gov/organization/dscb/obtaining/available plates.htm. […] The stock solutions were prepared in dimethyl sulfoxide (DMSO, Sigma-Aldrich, St. Louis, MO, cat. D2650), except for the platinum complexes which were prepared in saline (Quality Biological, Gaithersburg, MD, cat. 114-055-101), at 800-fold the tested concentration and stored at -70 degrees C prior to their use. All drugs and investigational agents were tested over a range starting from a high concentration at or near the clinical Cmax and decreasing in half-log increments. If the clinical Cmax for an agent had not been determined, the highest concentration tested was 10 microM.\nCell Culture. All cells were maintained in an incubator at 37 degrees C and 5% CO2 with 95% humidity. The PDC lines were cultured according to standard operating procedures established by the NCI PDMR. Briefly, all PDCs were thawed and cultured in Matrigel-coated flasks prepared with a working solution of 1X Ham's F-12 nutrient mix, without supplementation (Invitrogen, Waltham, MA, cat. 11765054), 100 U/mL penicillin-streptomycin (Invitrogen, cat. 15140122), and 2.5% Matrigel (Corning Inc., Corning, NY, cat. 354248) for the first three passages. The 947758-054-R-J2-PDC line was cultured in 6B/Colon 1A media, which includes advanced DMEM/F-12 (Thermo Fisher Scientific, cat. 12634028), 10 mM HEPES (Thermo Fisher Scientific, cat. 15630080), 1X GlutaMAX supplement (Thermo Fisher Scientific, cat. 35050061), 0.1 mg/mL primocin (InvivoGen, cat. ant-pm-2), 10% defined fetal bovine serum, heat inactivated (HyClone Laboratories Inc., cat. SH30070.03HI), 1.25 mM N-Acetyl-L-cysteine (Sigma-Aldrich, cat. A9165), 10 mM nicotinamide (Sigma-Aldrich, cat. N0636), 1X B-27 supplement (Thermo Fisher Scientific, cat. 17504044), 1X N-2 supplement (Thermo Fisher Scientific, cat. 17502048), and 10 microM Y-27632 dihydrochloride (Tocris Bioscience, cat. 1254). The 876862-298-R-J1-PDC was cultured in 6E media, which includes all 6B/Colon 1A media components plus 50% L-WRN conditioned media (ATCC, cat. CRL-3276), 50 ng/mL recombinant human EGF recombinant protein (hEGF; Thermo Fisher Scientific, cat. PHG0311), 10 ng/mL recombinant human fibroblast growth factor 10 (hGFG-10; PeproTech, cat. 100-26), 1 ng/mL recombinant human fibroblast growth factor 2 (hFGF-2; PeproTech, cat. 100-18B), and 1 µM prostaglandin E2 (PGE2; Tocris, cat. 2296). The 227483-062-R1-J1-PDC line was cultured in Panc media, containing all 6E components except hFGF-2, with the addition of 500 nM SB-431542 (Selleckchem, cat. S1067) and 10 nM gastrin (Tocris, cat. 3006). […]", "data": [{"compound": "CC(C)CC(NC(=O)C(Cc1ccccc1)NC(=O)c1cnccn1)B(O)O", "note": "(configuration not stated) + CN1CCN(c2cc(C(=O)Nc3cc4cc(-c5cnn(C)c5)ccc4cn3)ccn2)CC1;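 further: spheroids exposed to the drug combinations for seven days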;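 on viability, T/C: percent viability relative to DMSO vehicle control wells taken as 100%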", "values": [{"measurement": "IC50", "setting": "second compound 0.0316 µM", "value": 5.53, "unit": "nM"}, {"measurement": "IC50", "setting": "second compound 0.1 µM", "value": 5.01, "unit": "nM"}, {"measurement": "IC50", "setting": "second compound 0.316 µM", "value": 5.27, "unit": "nM"}, {"measurement": "IC50", "setting": "second compound 1 µM", "value": "< 0.949", "unit": "nM"}, {"measurement": "IC50", "setting": "second compound 3.16 µM", "value": "< 0.949", "unit": "nM"}, {"measurement": "IC50", "setting": "second compound 10 µM", "value": "< 0.949", "unit": "nM"}, {"measurement": "viability, T/C", "setting": "second compound 0.0316 µM, first compound 0.000949 µM", "value": 97.8, "unit": "%"}, {"measurement": "viability, T/C", "setting": "second compound 0.0316 µM, first compound 0.003 µM", "value": 113, "unit": "%"}, {"measurement": "viability, T/C", "setting": "second compound 0.0316 µM, first compound 0.00949 µM", "value": 0.79, "unit": "%"}, {"measurement": "viability, T/C", "setting": "second compound 0.0316 µM, first compound 0.03 µM", "value": 0.19, "unit": "%"}, {"measurement": "viability, T/C", "setting": "second compound 0.0316 µM, first compound 0.0949 µM", "value": 0.17, "unit": "%"}, {"measurement": "viability, T/C", "setting": "second compound 0.0316 µM, first compound 0.3 µM", "value": 0.17, "unit": "%"}, {"measurement": "viability, T/C", "setting": "second compound 0.1 µM, first compound 0.000949 µM", "value": 86.1, "unit": "%"}, {"measurement": "viability, T/C", "setting": "second compound 0.1 µM, first compound 0.003 µM", "value": 93.5, "unit": "%"}, {"measurement": "viability, T/C", "setting": "second compound 0.1 µM, first compound 0.00949 µM", "value": 0.23, "unit": "%"}, {"measurement": "viability, T/C", "setting": "second compound 0.1 µM, first compound 0.03 µM", "value": 0.2, "unit": "%"}, {"measurement": "viability, T/C", "setting": "second compound 0.1 µM, first compound 0.0949 µM", "value": 0.18, "unit": "%"}, {"measurement": "viability, T/C", "setting": "second compound 0.1 µM, first compound 0.3 µM", "value": 0.17, "unit": "%"}, {"measurement": "viability, T/C", "setting": "second compound 0.316 µM, first compound 0.000949 µM", "value": 96.5, "unit": "%"}, {"measurement": "viability, T/C", "setting": "second compound 0.316 µM, first compound 0.003 µM", "value": 99, "unit": "%"}, {"measurement": "viability, T/C", "setting": "second compound 0.316 µM, first compound 0.00949 µM", "value": 0.2, "unit": "%"}, {"measurement": "viability, T/C", "setting": "second compound 0.316 µM, first compound 0.03 µM", "value": 0.17, "unit": "%"}, {"measurement": "viability, T/C", "setting": "second compound 0.316 µM, first compound 0.0949 µM", "value": 0.18, "unit": "%"}, {"measurement": "viability, T/C", "setting": "second compound 0.316 µM, first compound 0.3 µM", "value": 0.17, "unit": "%"}, {"measurement": "viability, T/C", "setting": "second compound 1 µM, first compound 0.000949 µM", "value": 1.6, "unit": "%"}, {"measurement": "viability, T/C", "setting": "second compound 1 µM, first compound 0.003 µM", "value": 0.82, "unit": "%"}, {"measurement": "viability, T/C", "setting": "second compound 1 µM, first compound 0.00949 µM", "value": 0.17, "unit": "%"}, {"measurement": "viability, T/C", "setting": "second compound 1 µM, first compound 0.03 µM", "value": 0.15, "unit": "%"}, {"measurement": "viability, T/C", "setting": "second compound 1 µM, first compound 0.0949 µM", "value": 0.54, "unit": "%"}, {"measurement": "viability, T/C", "setting": "second compound 1 µM, first compound 0.3 µM", "value": 0.13, "unit": "%"}, {"measurement": "viability, T/C", "setting": "second compound 3.16 µM, first compound 0.000949 µM", "value": 0.76, "unit": "%"}, {"measurement": "viability, T/C", "setting": "second compound 3.16 µM, first compound 0.003 µM", "value": 0.84, "unit": "%"}, {"measurement": "viability, T/C", "setting": "second compound 3.16 µM, first compound 0.00949 µM", "value": 0.17, "unit": "%"}, {"measurement": "viability, T/C", "setting": "second compound 3.16 µM, first compound 0.03 µM", "value": 0.18, "unit": "%"}, {"measurement": "viability, T/C", "setting": "second compound 3.16 µM, first compound 0.0949 µM", "value": 0.19, "unit": "%"}, {"measurement": "viability, T/C", "setting": "second compound 3.16 µM, first compound 0.3 µM", "value": 0.33, "unit": "%"}, {"measurement": "viability, T/C", "setting": "second compound 10 µM, first compound 0.000949 µM", "value": 0.45, "unit": "%"}, {"measurement": "viability, T/C", "setting": "second compound 10 µM, first compound 0.003 µM", "value": 0.34, "unit": "%"}, {"measurement": "viability, T/C", "setting": "second compound 10 µM, first compound 0.00949 µM", "value": 0.24, "unit": "%"}, {"measurement": "viability, T/C", "setting": "second compound 10 µM, first compound 0.03 µM", "value": 0.24, "unit": "%"}, {"measurement": "viability, T/C", "setting": "second compound 10 µM, first compound 0.0949 µM", "value": 0.22, "unit": "%"}, {"measurement": "viability, T/C", "setting": "second compound 10 µM, first compound 0.3 µM", "value": 0.19, "unit": "%"}]}]}
